The subject of this assay is T-47D spheroids with HUVEC/MSC, viability. The experiment in a line: Anticancer human tumor T-47D cell line growth inhibition [PI3K].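 For all read-outs here: spheroids exposed to agents for seven days before reading.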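 For viability, T/C: percent of DMSO vehicle control luminescence so 100% = untreated growth.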 To be noted: for viability, T/C: stronger effect = lower value. A digest of the protocol: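 Multi-cell spheroids combine tumor cells with HUVEC and human MSCs, treated with targeted agents alone or with inavolisib, alpelisib, duvelisib or copanlisib. Concentrations fall in half-log steps from at or near clinical Cmax, or from 10 microM where Cmax is unknown; viability read-out.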

Setting [1] is: curve of first compound, second compound 0.0316 µM.
Where [2] appears, read: curve of first compound, second compound 0.1 µM.
Setting [3] is: curve of first compound, second compound 0.316 µM.
Setting [4] is: curve of first compound, second compound 1 µM.
Where [5] appears, read: curve of first compound, second compound 3.16 µM.
[6] abbreviates: curve of first compound, second compound 10 µM.
The mark [7] stands for this setting: second compound 0.0316 µM, first compound 0.0316 µM.
Where [8] appears, read: second compound 0.0316 µM, first compound 0.1 µM.
Where [9] appears, read: second compound 0.0316 µM, first compound 0.316 µM.
The mark [10] stands for this setting: second compound 0.0316 µM, first compound 1 µM.
Setting [11] is: second compound 0.0316 µM, first compound 3.16 µM.
[12] abbreviates: second compound 0.0316 µM, first compound 10 µM.
Where [13] appears, read: second compound 0.1 µM, first compound 0.0316 µM.
Where [14] appears, read: second compound 0.1 µM, first compound 0.1 µM.
The mark [15] stands for this setting: second compound 0.1 µM, first compound 0.316 µM.
The mark [16] stands for this setting: second compound 0.1 µM, first compound 1 µM.
The mark [17] stands for this setting: second compound 0.1 µM, first compound 3.16 µM.
The mark [18] stands for this setting: second compound 0.1 µM, first compound 10 µM.
Where [19] appears, read: second compound 0.316 µM, first compound 0.0316 µM.
Setting [20] is: second compound 0.316 µM, first compound 0.1 µM.
Where [21] appears, read: second compound 0.316 µM, first compound 0.316 µM.
The mark [22] stands for this setting: second compound 0.316 µM, first compound 1 µM.
The mark [23] stands for this setting: second compound 0.316 µM, first compound 3.16 µM.
Where [24] appears, read: second compound 0.316 µM, first compound 10 µM.
The mark [25] stands for this setting: second compound 1 µM, first compound 0.0316 µM.
[26] abbreviates: second compound 1 µM, first compound 0.1 µM.
Where [27] appears, read: second compound 1 µM, first compound 0.316 µM.
Setting [28] is: second compound 1 µM, first compound 1 µM.
[29] abbreviates: second compound 1 µM, first compound 3.16 µM.
The mark [30] stands for this setting: second compound 1 µM, first compound 10 µM.
The mark [31] stands for this setting: second compound 3.16 µM, first compound 0.0316 µM.
Setting [32] is: second compound 3.16 µM, first compound 0.1 µM.
The mark [33] stands for this setting: second compound 3.16 µM, first compound 0.316 µM.
The mark [34] stands for this setting: second compound 3.16 µM, first compound 1 µM.
The mark [35] stands for this setting: second compound 3.16 µM, first compound 3.16 µM.
Where [36] appears, read: second compound 3.16 µM, first compound 10 µM.
[37] abbreviates: second compound 10 µM, first compound 0.0316 µM.
Where [38] appears, read: second compound 10 µM, first compound 0.1 µM.
[39] abbreviates: second compound 10 µM, first compound 0.316 µM.
[40] abbreviates: second compound 10 µM, first compound 1 µM.
The mark [41] stands for this setting: second compound 10 µM, first compound 3.16 µM.
[42] abbreviates: second compound 10 µM, first compound 10 µM.

Here are results for four compounds from PubChem BioAssay AID1963959 (Molecular Pharmacology Branch, DTP, NCI, 2024).

Values joined by “and” are separate entries in the source; they are usually repeats but may differ in a detail not shown here. Identical values can stand only once.

For `C[C@@H](NC(=O)c1ncnc(N)c1Cl)c1ncc(C(=O)Nc2cc(C(F)(F)F)c(Cl)cn2)s1` + CC(Nc1ncnc2nc[nH]c12)c1cc2cccc(Cl)c2c(=O)n1-c1ccccc1, the half-inhibitory concentration (IC50) under setting [1] is greater than 10 µM; the half-inhibitory concentration (IC50) under setting [2] is greater than 10 µM; the concentration for half-maximal inhibition (IC50) under setting [3] is greater than 10 µM; the concentration for half-maximal inhibition (IC50) under setting [4] was greater than 10 µM; the IC50 under setting [5] was greater than 10 µM; the IC50 under setting [6] was greater than 10 µM. In addition, the viability, T/C runs as follows: under setting [7], 75.3%; under setting [8], 88.3%; under setting [9], 83.8%; under setting [10], 89.1%; under setting [11], 108%; under setting [12], 92.5%. Also, the viability, T/C reads like this: under setting [13], 106%; under setting [14], 90.2%; under setting [15], 86%; under setting [16], 84.3%; under setting [17], 89.9%; under setting [18], 90.9%. Besides, the viability, T/C under setting [19] was 94.8%; the viability, T/C under setting [20] was 93.2%; the viability, T/C under setting [21] was 90.3%; the viability, T/C under setting [22] is 84%; the viability, T/C under setting [23] is 84.7%; the viability, T/C under setting [24] was 100%. The viability, T/C is, setting by setting: under setting [25], 80.2%; under setting [26], 105%; under setting [27], 80.9%; under setting [28], 89.2%; under setting [29], 85.8%; under setting [30], 90%. Moreover, the viability, T/C by setting is: under setting [31], 72.2%; under setting [32], 91.2%; under setting [33], 97.4%; under setting [34], 98.8%; under setting [35], 82%; under setting [36], 80.7%. The viability, T/C under setting [37] is 105%; the viability, T/C under setting [38] was 82.1%; the viability, T/C under setting [39] was 103%; the viability, T/C under setting [40] is 84.1%; the viability, T/C under setting [41] is 86.3%; the viability, T/C under setting [42] is 88.8%.

Consider `CC1(C)CCC(CN2CCN(c3ccc(C(=O)NS(=O)(=O)c4ccc(NCC5CCOCC5)c([N+](=O)[O-])c4)c(Oc4cnc5[nH]ccc5c4)c3)CC2)=C(c2ccc(Cl)cc2)C1`, for which the viability, T/C by setting is: (compound 0.0316 µM) 93.2% [middle of 4 runs]; (compound 0.1 µM) 99% [middle of 4 runs]; (compound 0.316 µM) 99% and 91.9% and 111% (2×). Further, the IC50 (curve of compound) is greater than 10 µM.

As to `Cn1ncc(Cl)c1-c1cc(C(=O)NC(CN)Cc2cccc(F)c2)sc1Cl` (stereo not drawn) + Cc1nc(NC(=O)N2CCCC2C(N)=O)sc1-c1ccnc(C(C)(C)C(F)(F)F)c1, the half-maximal inhibitory concentration (IC50) under setting [1] was greater than 10 µM; the concentration for half-maximal inhibition (IC50) under setting [2] was greater than 10 µM; the half-inhibitory concentration (IC50) under setting [3] was greater than 10 µM; the IC50 under setting [4] is greater than 10 µM; the half-maximal inhibitory concentration (IC50) under setting [5] is greater than 10 µM; the half-maximal inhibitory concentration (IC50) under setting [6] was less than 0.0316 µM. Besides, the viability, T/C is 107% under setting [7]; 88.1% under setting [8]; 83.8% under setting [9]; 64.8% under setting [10]; 64.9% under setting [11]; 63.3% under setting [12]. Besides, the viability, T/C is, setting by setting: under setting [13], 88.8%; under setting [14], 93.2%; under setting [15], 80.3%; under setting [16], 60%; under setting [17], 55.8%; under setting [18], 65.3%. Moreover, the viability, T/C by setting is: under setting [19], 88.1%; under setting [20], 69.8%; under setting [21], 75%; under setting [22], 57.8%; under setting [23], 60.7%; under setting [24], 66.8%. Further, the viability, T/C runs as follows: under setting [25], 70%; under setting [26], 75.9%; under setting [27], 67.7%; under setting [28], 53.9%; under setting [29], 64.6%; under setting [30], 65.3%. For the same compound, the viability, T/C reads like this: under setting [31], 58.5%; under setting [32], 59.4%; under setting [33], 48.9%; under setting [34], 49.7%; under setting [35], 43.9%; under setting [36], 61.8%. In addition, the viability, T/C by setting is: under setting [37], 35.1%; under setting [38], 30%; under setting [39], 33.3%; under setting [40], 32.1%; under setting [41], 39.7%; under setting [42], 50.5%.

In the case of `Cn1ncnc1[C@H]1c2n[nH]c(=O)c3cc(F)cc(c23)N[C@@H]1c1ccc(F)cc1`, the viability, T/C reads like this: (compound 0.000316 µM) 103% [middle of 4 runs]; (compound 0.001 µM) 98.3% [middle of 4 runs]; (compound 0.01 µM) 109% [middle of 4 runs]; (compound 0.0316 µM) 101% [middle of 4 runs]. Moreover, under “curve of compound”, the 50% inhibitory concentration (IC50) is greater than 0.1 µM.

The IC50 is the point on the concentration scale where inhibition reaches its midpoint. The term viability, T/C denotes the result in the treated group divided by that in the control group, in per cent.
